Experimental data reported in US8530459B2, “Swallowtail motifs for imparting water solubility to porphyrinic compounds” (North Carolina State University, priority 2005, dated 2013).

Assays:
Format in all cases: physicochemical
[1] = Stability of porphyrin-phosphate in protic solvent monitored by 1H NMR and LD-MS; conditions: mixture of CDCl3/CD3OD
Text: Porphyrin 12a contains both the bioconjugatable site and the water-solubilizing groups, masked by tert-butyl and methyl esters, respectively. Attempts at the simultaneous removal of the tert-butyl and methyl ester protecting groups with TMS-Br were unsuccessful. […] This compound is identical to 15b (vide infra). […] The following observations were made: • (1) The crude porphyrin-phosphates, while displaying excellent water-solubility initially, precipitated out of solution within minutes. • (2) Because TMS-Br removed some of the zinc, remetalation was attempted with zinc acetate. […] Most (but not all) of the precipitate could be redissolved in concentrated (15 wt %) aqueous NaOH. • (3) When 12b was treated with TMS-Br in the presence of TEA to suppress demetalation,^27 the deprotected porphyrin-diol 11b was not formed until the addition of a protic solvent. During the work-up, 11b formed in quantitative yield, as determined by ^1H NMR spectroscopy and LD-MS [obsd m/z 567, calcd 566 for demetalated (M+H)^+] of the purified sample. • (4) A sample of 12b in a mixture of CDCl3/CD3OD was monitored by ^1H NMR and LD-MS. Within 8 h the formation of porphyrin 11b was almost quantitative (obsd m/z 566, disappearance of phosphate methyl ester singlets). • (5) Basic hydrolysis (H2O/MeOH, NaOH, various concentrations) removed only two of the methyl esters, but none of 11b was formed.

[2] = Solubility in organic solvents
Text: Reaction of 11a with dimethyl chlorophosphate in anhydrous pyridine gave no 12a, whereas similar reaction with 11b gave a very low yield of 12b. The poor yields are presumably due to the combination of low solubility and low reactivity on the part of the porphyrin-diol starting materials. We assumed that incorporation of the dimethoxyphosphoryl groups at an earlier stage could provide a more efficient process.

[3] = Water-solubility of pure porphyrin in distilled water; conditions: thermodynamic from solid; 8-10 mg of pure porphyrin completely dissolved in 300 μL of distilled water; upper limit not determined; read-out: water-solubility (concentration)
Experimental: Determination of the upper limit of water-solubility was not possible due to the lack of material; however, in each case examined, 8-10 mg of pure porphyrin (14b, 17b, Zn17b, 17a, Zn17a) completely dissolved in 300 μL of distilled water, consistent with a concentration of >20 mM.

[4] = Stability of aqueous porphyrin solutions (naked eye, absorption spectroscopy); conditions: for precipitation or aggregation of aqueous solutions: naked eye or absorption spectroscopy; for stability of aqueous solutions: room temperature, shielded from the light

| Molecule | time to almost quantitative formation of porphyrin 11b (loss of phosphate groups) [1] [h] | solubility in most organic solvents [2] | solubility [3] [mM] | precipitation or aggregation of aqueous solutions [4] | stability of aqueous solutions [4] |
| --- | --- | --- | --- | --- | --- |
| COP(=O)(OC)OCCC(CCOP(=O)(OC)OC)c1c2nc(cc3ccc([n-]3)c(-c3ccc(Br)cc3)c3nc(cc4ccc1[n-]4)C=C3)C=C2.[Zn+2] [12b, Zn(II)-5-(4-Bromophenyl)-15-[1,5-bis(dimethoxyphosphoryloxy)pent-3-yl]porphyrin] | ≤ 8 | – | – | – | – |
| Zn(II)-5-(4-Bromophenyl)-15-(1,5-dihydroxypent-3-yl)porphyrin [11b] | – | only sparingly soluble | – | – | – |
| O=P(O)(O)OCCC(CCOP(=O)(O)O)c1c2nc(cc3ccc([nH]3)c(-c3ccc(Br)cc3)c3nc(cc4ccc1[nH]4)C=C3)C=C2 [14b, 5-(4-Bromophenyl)-15-(1,5-bis[dihydroxyphosphoryloxy)pent-3-yl]porphyrin] | – | – | > 20 | Neither precipitation nor aggregation was observed | stable for days |
| Zn(II)-5-(4-tert-Butoxycarbonylmethoxyphenyl)-5-(1,5-dihydroxypent-3-yl)-porphyrin [11a] | – | only sparingly soluble | – | – | – |
| O=C(O)COc1ccc(-c2c3nc(cc4ccc([n-]4)c(C(CCP(=O)(O)O)CCP(=O)(O)O)c4nc(cc5ccc2[n-]5)C=C4)C=C3)cc1.[Zn+2] [Zn17a, Zn(II)-5-(4-(Carboxymethoxy)phenyl)-15-[1,5-bis(dihydroxyphosphoryl)pent-3-yl]porphyrin] | – | – | – | Neither precipitation nor aggregation was observed | stable for days |
| Zn(II)-5-(4-Bromophenyl)-15-[1,5-bis(dihydroxyphosphoryl)pent-3-yl]porphyrin [Zn17b] | – | – | – | Neither precipitation nor aggregation was observed | stable for days |
| O=P(O)(O)CCC(CCP(=O)(O)O)c1c2nc(cc3ccc([nH]3)c(-c3ccc(Br)cc3)c3nc(cc4ccc1[nH]4)C=C3)C=C2 [17b, 5-(4-Bromophenyl)-15-[1,5-bis(dihydroxyphosphoryl)pent-3-yl]porphyrin] | – | – | > 20 | Neither precipitation nor aggregation was observed | stable for days |
| O=C(O)COc1ccc(-c2c3nc(cc4ccc([nH]4)c(C(CCP(=O)(O)O)CCP(=O)(O)O)c4nc(cc5ccc2[nH]5)C=C4)C=C3)cc1 [17a, 5-(4-(Carboxymethoxy)phenyl)-15-[1,5-bis(dihydroxyphosphoryl)pent-3-yl]porphyrin] | – | – | > 20 | Neither precipitation nor aggregation was observed | stable for days |
